Data published in patent US8609608B2, “Antimicrobial peptides” (C3 Jian, Inc., priority 2007, dated 2013).
Where no end group is shown, it is not given here.

These substances were tested on clinical isolates of S. mutans. Settings: not given.
Type: cell-based, Streptococcus mutans
Procedure: S. mutans clinical isolates UA140 (32), UA159 (1), T8 (33), ATCC 25175, GS5 (Kuramitsu and Ingersoll (1977) Infect Immun., 17: 330-337), and all gram-positive strains listed below (see Table 9) were grown under anaerobic conditions in brain heart infusion or Todd-Hewitt (TH) broth (Difco) overnight at 37° C. prior to use (Eckert et al. (2006) Antimicrob. Agents Chemother. 50: 3651-3657). Veillonella atypica PK1910 was grown in Veillonella medium (Egland et al. (2004) Proc. Natl. Acad. Sci., USA, 101: 16917-16922). All strains were grown in an anaerobic atmosphere of 80% N2, 10% CO2, and 10% H2.
Antibacterial growth inhibition assays were performed using sterile 96-well plates in a final volume of 100 μl, TH or Veillonella medium as described previously (Qi et al. (2005) FEMS Microbial Lett. 251: 321-326). Briefly, bacterial cells were grown overnight to an optical density at 600 nm of 0.75 to 0.8 (corresponding to 1×10^8 CFU/ml) and then diluted to 1×10^5 CFU/ml in broth and aliquoted onto plates. An appropriate volume of peptide stock solution (5 to 20 mg/ml, in water or methanol, depending on solubility) was then added to the first column of the plate to give 500 μg/ml or 512 μg/ml, followed by serial 1:2 dilutions across the plate to give wells containing peptides ranging from 500 to 1.95 μg/ml or 512 to 2 μg/ml. Methanol alone was also added to control for the effects of the solvent. The plates were then incubated at 37° C. under anaerobic conditions for 16 to 20 h without shaking, and the MIC was determined as the concentration of peptide present in the last clear well after visual inspection. Up to 5% (vol/vol) methanol was found not to be antimicrobial (data not shown). MICs were determined in triplicate for all bacteria.
With “AQAAHQAAHAAHQF-NH2 [α-4, AQAAHQAAHAAHQF*]” the “activity against S. mutans by MIC, in words” value (“activity against S. mutans” for short) was “inactive”. With “FKTFLQWLHRF-NH2 [Peptide B-53, FKTFLQWLHRF*]” the “activity against S. mutans” value was “active but to a lesser degree than B-33 or B-34”. For “FKTFLKWLHRF-NH2 [Peptide B-37, FKTFLKWLHRF*]”, the “activity against S. mutans” value was “active but to a lesser degree than B-33 or B-34”. “LYHFLHWFQRF-NH2 [Peptide B-50, LYHFLHWFQRF*]” was tested, and the “activity against S. mutans” value was “weakly active”. “LKQFVKFIHRF-NH2 [Peptide B-57, LKQFVKFIHRF*]” was tested, and the “activity against S. mutans” value was “active but to a lesser degree than B-33 or B-34”. With “FHYFWHWFHRF-NH2 [Peptide B-49, FHYFWHWFHRF*]” the “activity against S. mutans” value was “weakly active”. In the case of “VKQLLKIFNRF-NH2 [Peptide B-58, VKQLLKIFNRF*]”, the “activity against S. mutans” value is reported as “active but to a lesser degree than B-33 or B-34”.

Same assay, conditions: clinical isolates of
For RVLNQVKQILK [Peptide B-60, RVLNQVKQILK], the MIC was >125 µg/mL. With “RILKELKNLFK-OH [Peptide B-40, RILKELKNLFK]” the MIC was >250 µg/mL. Work on “RWRRWWRHFHHFFH-NH2 [α-9, RWRRWWRHFHHFFH*]” yielded an MIC of 8 µg/mL. With “AQAAHQAAHAAHQF-NH2 [α-4, AQAAHQAAHAAHQF*]” the MIC was >125 µg/mL. Substance “LQLLKQLLKLLKQF-NH2 [α-7, LQLLKQLLKLLKQF*]” has an MIC of 8 µg/mL. For “KLLQTFNQIFR-OH [Peptide B-55, KLLQTFNQIFR]”, the MIC was >125 µg/mL. With “KLVQQLKNIFR-OH [Peptide B-59, KLVQQLKNIFR]” the MIC was >125 µg/mL. For “FKTFLQWLHRF-NH2 [Peptide B-53, FKTFLQWLHRF*]”, the MIC was 16 to 64 µg/mL. RRRWWWK [Peptide 3C-3, RRRWWWK] showed an MIC of 31.25 to 125 µg/mL. “VKKLAKLVRRF-NH2 [Peptide B-61, VKKLAKLVRRF*]” gave an MIC of 16 to 32 µg/mL. RRRKWWK [Peptide 4C-3, RRRKWWK] showed an MIC of 125 µg/mL. “KLLQTFKQIFR-OH [Peptide B-39, KLLQTFKQIFR]” was tested, and the MIC was >250 µg/mL. For “YLLTEFQHLFK-OH [Peptide B-52, YLLTEFQHLFK]”, the MIC was >125 µg/mL. “YLFQTWQHLFR-OH [Peptide B-51, YLFQTWQHLFR]” was tested, and the MIC was >125 µg/mL. With “FKTFLKWLHRF-NH2 [Peptide B-37, FKTFLKWLHRF*]” the MIC was 24 µg/mL. In the case of RRRRWWW [Peptide 1C-1, RRRRWWW], the MIC is reported as 16 µg/mL. With “FKKFWKWFRRFGGGRWRRLLKKLHHLLH-NH2 [FBα-12, FKKFWKWFRRF-GGG-RWRRLLKKLHHLLH*]” the “MIC (fusion library peptides)” value was 16 µg/mL. RRWWRRW [Peptide 1C-2, RRWWRRW] gave an MIC of 16 µg/mL. With “LYHFLHWFQRF-NH2 [Peptide B-50, LYHFLHWFQRF*]” the MIC was 125 µg/mL. Work on RWRKRWK [Peptide 4C-4, RWRKRWK] yielded an MIC of 125 to 500 µg/mL. Work on “RLLKRFKHLFK-OH [Peptide B-36, RLLKRFKHLFK]” yielded an MIC of 31.25 to 125 µg/mL. RRRFWWR [Peptide 2C-1, RRRFWWR] showed an MIC of 31.25 to 125 µg/mL. With “IKQLLHFFQRFGGGRWRRLLKKLHHLLH-NH2 [FBα-13, IKQLLHFFQRF-GGG-RWRRLLKKLHHLLH*]” the “MIC (fusion library peptides)” value was 16 µg/mL. In the case of “LKQFVKFIHRF-NH2 [Peptide B-57, LKQFVKFIHRF*]”, the MIC is reported as 24 µg/mL. Work on RRWKRRK [Peptide 4C-2, RRWKRRK] yielded an MIC of 500 µg/mL. For RWRWRWK [Peptide 3C-4, RWRWRWK], the MIC was 32 µg/mL. Substance RRWWRRF-NH2 [Peptide 2C-2, RRWWRRF*] has an MIC of 12 to 24 µg/mL. “ATHLLHALQRF-NH2 [Peptide B-46, ATHLLHALQRF*]” was tested, and the MIC was >250 µg/mL. RWRWRWR [Peptide 1C-4, RWRWRWR] gave an MIC of 32 µg/mL. In the case of “KLVEQLKEIFR-OH [Peptide B-43, KLVEQLKEIFR]”, the MIC is reported as >250 µg/mL. In the case of RALKRIKHVLK [Peptide B-64, RALKRIKHVLK], the MIC is reported as >125 µg/mL. With RRRWWWR [Peptide 1C-3, RRRWWWR] the MIC was 32 µg/mL. In the case of “FHYFWHWFHRF-NH2 [Peptide B-49, FHYFWHWFHRF*]”, the MIC is reported as 125 µg/mL. With “KLAENVKEILR-OH [Peptide B-47, KLAENVKEILR]” the MIC was >250 µg/mL. With KLAQKVKRVLR [Peptide B-63, KLAQKVKRVLR] the MIC was >125 µg/mL. For “KLKKLLKRWRRWWR-OH [α-10, KLKKLLKRWRRWWR]”, the MIC was 8 µg/mL. In the case of “VKQLLKIFNRF-NH2 [Peptide B-58, VKQLLKIFNRF*]”, the MIC is reported as 32 to 62.5 µg/mL. Work on RRRRWWK [Peptide 3C-1, RRRRWWK] yielded an MIC of 125 µg/mL. Substance RRRKWWK [Peptide 4C-1, RRRKWWK] has an MIC of 250 µg/mL.
